In PMC13108699, “Mass balance and metabolite profiling of ^14C-Zalunfiban in humans following single-dose subcutaneous administration” (Xenobiotica; the fate of foreign compounds in biological …, 2025):
Values joined by “and” are separate entries in the source; they are usually repeats but may differ in a detail not shown here. Equal entries are not always repeated.

Columns and labels:
[1] = Whole blood total radioactivity (AMS) PK after SC ^14C-zalunfiban; assay type: in vivo, human
Protocol: The planned participant enrolment size was 8, with 2 additional alternate participants available on the morning of dosing. Following a 28-day screening period, all eligible participants were admitted to the research unit the evening before dosing. After fasting overnight, participants completed a standard breakfast prior to dosing on study day 1. After dosing, subjects fasted for 4 h. Fluids were permitted ad libitum starting 1-hour after dosing. […] The clinical study was conducted at the Pharmaron Clinical Pharmacology Centre (Baltimore, MD) and the study protocol, consent forms and regulatory documents were reviewed and approved by the […] Institutional Review Board (Columbia, MD). All participants received the same fixed mass dose of SC 9.5 mg ^14C-zalunfiban (5 μCi), in 0.5 mL of formulation solution. This zalunfiban dose was chosen to both ensure participant safety and to make certain the study results were clinically relevant. For the latter, by strict inclusion of participants with a body weight within the range of 73-99 kg, the zalunfiban doses were no higher than the highest administered in the currently ongoing Phase 3 study, which includes three groups of 0.110 mg/kg zalunfiban, 0.130 mg/kg zalunfiban, and placebo ([NIH 2025]). The ^14C radiolabel dose of 5 μCi presented minimal radiation risk to healthy subjects while providing a high likelihood of meeting the study objectives. […] At the laboratory, extraction of ^14C-zalunfiban from whole blood was achieved by repeated microcentrifugation, vortex mixing, and harvesting to collect analytes (see Metabolite profiling and excretion for more details). […] Whole blood samples were analysed using accelerator mass spectrometry (AMS). Urine sample analysis was performed using liquid scintillation counting analysis. Each sample was counted for at least 10 min or until the 2%2σ terminator was reached. Homogenised faeces samples were combusted in a Perkin Elmer, Model 307 sample oxidiser (Perkin Elmer, Waltham MA). […] For urine and faeces samples, total radioactivity analysis was initially performed using two liquid scintillation counters (LSC), a TriCarb 3180 TR/SL and a TriCarb 5110 TR (Perkin Elmer, Waltham MA). When the measured total radioactivity concentration was above the LLOQ, LSC data were reported. For LSC, the LLOQ was defined as twice the background count rate. If the radioactivity concentration was below the limit of quantification (BLOQ), samples were analysed by Accelerator Mass Spectrometry (AMS). For AMS analysis, the LLOQ for total radioactivity depends on multiple factors, including the carbon content of the sample, and it is provided as the mean of all participant values. The mean (SD) total radioactivity LLOQ for zalunfiban in whole blood was 0.2421 (0.0571) ngEq/mL, for faeces 0.0663 (0.0135) ngEq/gm, and urine 0.0088 (0.0029) ngEq/g. Zalunfiban and whole blood radioactivity concentrations were used to calculate PK parameters using standard non-compartmental analysis (NCA) methods using Phoenix WinNonlin software (Phoenix, Princeton, NJ). All statistical programming and tables, figures and listings were carried out using SAS 9.4 (SAS Institute, Inc., Cary, NC).

[2] = Metabolite profiling of pooled whole blood, urine and faeces by LC radiochromatograms with AMS; assay type: in vivo, human
Protocol: For metabolite profiling in whole blood, urine, and faeces, LC-MS/MS followed by AMS was used. The HPLC system included a 1290 Infinity Sampler, Binary Pump, and thermostat (Agilent, UK). The chromatographic method used an aqueous formic acid (MPA)/ammonium acetate:acetonitrile:methanol (MPB) gradient and a Scherzo SS-C18 HPLC column at a temperature of 40 °C with injection volumes of 50–200 microliters. The gradient was set at 90% MAP and 10% MPB. The mass spectrometer was a Q-Exactive system (Thermo Fisher Scientific, UK) and the AMS a single stage NEC SSAMS-250.
Single whole blood, faeces, and urine pools were created across subjects and radioactive regions representing 10% or more of the circulating radioactivity were analysed (e.g. 10% or more of the circulating radioactivity in whole blood or accounting for 10% or more of the administered radioactivity/dose in urine and faeces), To create the pool, an individual subject AUC pool was prepared, and a constant proportion of each subject pool was taken to create one cross-subject pool. The whole blood sample pool included samples from hours 0–144, the urine sample pool included samples from hours 0–48, and the faeces pool from hours 0–192.
Whole blood, faeces, and urine radiochromatograms were generated for each sample by collecting HPLC fractions at intervals of 2 (30 s) or 4 (15 s) per minute over the run time of 110 min.
Radiochromatograms were generated from AMS data using the LAURA V6 software (LabLogic, Sheffield, UK). Regions of interest were quantified and provisionally identified where possible by assignment of observed peaks in each radiochromatogram to either parent zalunfiban or M1 by retention time matching, with corresponding ^12C-reference standards obtained via LC-UV.
Assignment of parent and metabolites was made by matching retention times with synthesised standards at wavelengths of 210, 230, 254, 270, and 300 nm, using liquid chromatography ultraviolet chromatography (LC-UV).
For extraction of ^14C-zalunfiban from whole blood, weighed aliquots in microcentrifuge tubes were processed with vortex mixing and centrifugation. The supernatant was then harvested and the process repeated with the bullet material in the original tube using acetonitrile and then methanol. The combined aliquots then underwent AMS analysis to determine the extraction recovery. Once optimised, the final combined supernatant was dried under N2 gas at 40 °C and reconstituted with 1 mL methanol:water (20:80, v/v), with vortex mixing and sonication. This was followed by analysis by LC. The radioactivity extraction recovery for whole blood (AUC0–144h) was 54.5%,
For extraction of ^14C-zalunfiban from homogenised faeces, weighed aliquots in microcentrifuge tubes were processed with vortex mixing and centrifugation, and then diluted with acetonitrile, followed by additional mixing, centrifugation, and repeat extraction with methanol:water until optimised. Once optimised, the final combined supernatant was dried under N2 gas at 40 °C and reconstituted with methanol, followed by water, followed by vortex mixing, followed by analysis by LC. The radioactivity extraction recovery for faeces (0–192 h) was 100%.
Urine was not subjected to extraction. An aliquot was dispensed into an LC vial prior to analysis.

Which “Time of first detection of whole blood radioactivity” value ([1]; all participants) does the source give for `NCC(=O)Nc1cncc(-c2nn3c(=O)cc(N4CCNCC4)nc3s2)c1` [Zalunfiban, 2-amino-N-{5-[5-oxo-7-(piperazin-1-yl)-5H-[1,3,4]thia-diazolo[3,2-a]pyrimidin-2-yl]pyridin-3-yl}acetamide] here?
The value was 5 min.

What about the “Time to which whole blood total radioactivity remained quantifiable” value ([1]; all subjects except one (216 h)) of the same molecule?
Its value is “up to 240 h”.

And the “Mean whole blood zalunfiban/total radioactivity expressed as a percentage, AUC0–4” value ([1]; first 4 h after dose)?
The value was 35.6% and 35%.

And the “t1/2, whole blood total radioactivity” value ([1]; mean, overall (0.5 h to 240 h), n=8)?
The value was 98.3 h.

What about the “Mean whole blood zalunfiban/total radioactivity expressed as a percentage, AUC0-inf” value ([1]; to be interpreted with caution (different assay sensitivity)) of the same molecule?
The value was 15.1%.

And the “Percentage of dose excreted in urine” value ([2]; 0–48 h)?
The value was 1.31%.

And the “Percentage of total radioactivity in urine” value ([2]; 0–48 h cross-participant pooled sample)?
The value was 1.59%.

And the “Percentage of dose excreted in faeces” value ([2]; 0–192 h)?
The value was 0.0239%.

And the “Percentage of total radioactivity in faeces” value ([2]; 0–192 h pooled sample)?
Its value is 0.173%.

What about the “Percentage of total circulating radioactivity in whole blood” value ([2]; AUC0–144 cross-pooled whole blood extract) of the same molecule?
The value was 46.9%.
